# Measured values as given in paper PMC7297122 (2020).
# Columns and labels:
# [1] = test system: NAD+ riboswitch domain 1, wild type (unmodified domain 1 RNA) (RNA, riboswitch) GGCUUCAACAACCCCGUAGGUUGGGCCGCAAGGCAGCGAAUCUACUGGAGCC; experiment: ITC; conditions: 100 mM KCl, 10 mM MgCl2; 40 mM HEPES-K pH 7.0 (pH 7.2 in Figure 5 legend), 298 K
# [2] = test system: domain 1 crystallization RNA, 5-bromocytidine form (RNA, riboswitch, 5-bromocytidine at 3 or at 42 and 45 (which form per ligand: Table S1, not seen)) GGCUUCAACAACCCCGUAGGUUGGGCCGAAAGGCAGCGAAUCUACUGGAGCC; experiment: X-ray crystallography; conditions: Mg2+
# [3] = test system: C6U:G47A mutant domain 1 (RNA, riboswitch) GGCUUUAACAACCCCGUAGGUUGGGCCGCAAGGCAGCGAAUCUACUAGAGCC; experiment: ITC; conditions: 100 mM KCl, 10 mM MgCl2; 40 mM HEPES-K pH 7.0, 298 K; 1 mM ligand titrated into 100 µM RNA
# [4] = test system: domain 1 crystallization RNA, unmodified (RNA, riboswitch) GGCUUCAACAACCCCGUAGGUUGGGCCGAAAGGCAGCGAAUCUACUGGAGCC; experiment: X-ray crystallography; conditions: Mg2+
# [5] = test system: G47 2'-deoxy atomic mutant domain 1 (RNA, riboswitch, 2'-deoxy at 47) GGCUUCAACAACCCCGUAGGUUGGGCCGCAAGGCAGCGAAUCUACUGGAGCC; experiment: ITC; conditions: 100 mM KCl, 10 mM MgCl2; 40 mM HEPES-K pH 7.0, 298 K; 1 mM ligand titrated into 100 µM RNA
# [6] = test system: C6 2'-deoxy atomic mutant domain 1 (RNA, riboswitch, 2'-deoxy at 6) GGCUUCAACAACCCCGUAGGUUGGGCCGCAAGGCAGCGAAUCUACUGGAGCC; experiment: ITC; conditions: 100 mM KCl, 10 mM MgCl2; 40 mM HEPES-K pH 7.0, 298 K; 1 mM ligand titrated into 100 µM RNA
Kd [1] [µM],binding [2],binding [4],SMILES,other results
–,yes,–,Nc1ncnc2c1ncn2[C@@H]1O[C@H](COP(=O)(O)O)[C@@H](O)[C@H]1O,–
–,–,yes,Nc1ncnc2c1ncn2[C@@H]1O[C@H](COP(=O)(O)OP(=O)(O)OP(=O)(O)O)C[C@H]1O,–

# More lines, now with the values behind:
SMILES,Kd [1] [µM],binding [2],binding [4],other results
CNc1ncnc2c1ncn2[C@@H]1O[C@H](COP(=O)(O)OP(=O)(O)OP(=O)(O)O)[C@@H](O)[C@H]1O,50 ± 19,yes,–,–
NC(=O)C1=CN([C@@H]2O[C@H](COP(=O)(O)OP(=O)(O)OC[C@H]3O[C@@H](n4cnc5c(N)ncnc54)[C@H](O)[C@@H]3O)[C@@H](O)[C@H]2O)C=CC1,–,–,–,"binding ([2]; only ADP moiety visible, also Mn2+ form 6TFH): yes"
NC(=O)c1ccc[n+]([C@@H]2O[C@H](COP(=O)(O)OP(=O)(O)OC[C@H]3O[C@@H](n4cnc5c(N)ncnc54)[C@H](O)[C@@H]3O)[C@@H](O)[C@H]2O)c1,> 150,–,–,binding ([2]; ADP moiety and nicotinamide ribose 5' carbon visible): yes
Nc1ncnc2c1ncn2[C@@H]1O[C@H](COP(=O)(O)OP(=O)(O)O)[C@@H](O)[C@H]1O,89 ± 15,–,yes,binding [3]: no; binding [5]: weak; binding [6]: weak
Nc1ncnc2c1ncn2[C@@H]1O[C@H](COP(=O)(O)OP(=O)(O)OP(=O)(O)O)[C@@H](O)[C@H]1O,–,yes,–,–
Nc1ncnc2c1ncn2[C@@H]1O[C@H](COP(=O)(O)OS(=O)(=O)O)[C@@H](OP(=O)(O)O)[C@H]1O,–,–,yes,–
